The values below come from US20170121344A1 (Siga Technologies, Inc., priority 2009, published 2017).

For this experiment, the system named is Dengue-2 (Strain New Guinea C). As to the kind of experiment: Viral yield assay against Dengue-2 in Vero cells. It counts as cell-based, Dengue virus. As to conditions: Dengue virus. An outline of the steps:
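Vero cells were infected with dengue virus at an MOI of 0.1, treated with compound or DMSO vehicle, and kept at 37° C. Supernatant virus was harvested 48 hours post infection and titered on Vero cells, with EC50 derived from yield reduction.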

Where [1] appears, read: DENV2, viral yield assay, Vero cells, MOI 0.1, 48 hours post infection, read-out: Activity (EC50 in μM) DENV-2.
The mark [2] stands for this setting: Vero cells, MOI 0.1, harvested 48 hours post infection, read-out: Activity (EC50 class) against Dengue-2 Virus in Vero cells.
Setting [3] is: Vero, 48 h, read-out: Activity (EC50 class) against Dengue-2 Virus in Vero cells.

Read-outs that look alike come from different tables or passages of the source.

Turning to `COc1cccc(-c2ccc3c(N)c(C(=O)Nc4ccc(F)cc4F)sc3n2)c1` [Compound 502, 3-amino-N-(2,4-difluorophenyl)-6-(3-methoxyphenyl)thieno[2,3-b]pyridine-2-carboxamide], the EC50 under setting [1] was under 5 µM. For `CCCCN(CCCC)C(=O)c1sc2nc(N3CCOCC3)c3c(c2c1N)CC(C)(C)OC3` [Compound 246, 1-Amino-8,8-dimethyl-5-morpholin-4-yl-8,9-dihydro-6H-7-oxa-3-thia-4-aza-cyclopenta[a]naphthalene-2-carboxylic acid dibutylamide], under setting [2], the EC50 is over 25 µM. The same measure, in the same setting: the value for `CC1(C)Cc2c(c(N3CCOCC3)nc3sc4c(=O)n(-c5ccccc5)cnc4c23)CO1` [Compound 233, 2,2-Dimethyl-5-morpholin-4-yl-9-phenyl-1,4-dihydro-2H,9H-3-oxa-7-thia-6,9,11-triaza-benzo[c]fluoren-8-one] was over 25 µM. The same measure, in the same setting: the value for `CC(=O)Nc1ccc(NC(=O)c2sc3nc4c(cc3c2N)CCCC4)cc1` [Compound 204, 3-Amino-5,6,7,8-tetrahydro-thieno[2,3-b]quinoline-2-carboxylic acid (4-acetylamino-phenyl)-amide] was over 25 µM. For the compound `Nc1c(C(=O)Nc2ccncc2)sc2nc(-c3cccs3)ccc12` [Compound 357, 3-amino-N-(4-pyridyl)-6-(2-thienyl)thieno [2,3-b]pyridine-2-carboxamide], the EC50 under setting [1] was under 5 µM. Regarding `CCN(CC)C(=O)c1sc2nc(-c3ccccc3)cc(C(F)(F)F)c2c1N` [Compound 196, 3-Amino-6-phenyl-4-trifluoromethyl-thieno[2,3-b]pyridine-2-carboxylic acid diethylamide], the EC50 under setting [2] was over 25 µM. Still for that read-out and setting: the value for `COc1ccc(-c2cc(C3CC3)nc3sc(C(N)=O)c(N)c23)cc1` [Compound 7, 3-Amino-6-cyclopropyl-4-(4-methoxy-phenyl)-thieno[2,3-b]pyridine-2-carboxylic acid amide] was under 5 µM.

Turning to `Nc1c(C(=O)Nc2ccc3c(c2)OCO3)sc2nc(-c3ccc(F)cc3F)ccc12` [Compound 655, 3-amino-N-(1,3-benzodioxol-5-yl)-6-(2,4-difluorophenyl)thieno[2,3-b]pyridine-2-carboxamide], the EC50 under setting [1] is under 5 µM. As to `CCc1nnc(NC(=O)c2sc3nc(-c4cccs4)cc(C(F)(F)F)c3c2N)s1` [Compound 90, 3-Amino-6-thiophen-2-yl-4-trifluoromethyl-thieno[2,3-b]pyridine-2-carboxylic acid (5-ethyl-[1,3,4]thiadiazol-2-yl)-amide], under setting [3], the EC50 was 5 to 25 µM. `Cc1cc(C)c2c(C)c(C(=O)NC(C)C3CC3)sc2n1` (centres unmarked) [Compound 394, N-(1-cyclopropylethyl)-3,4,6-trimethyl-thieno[2,3-b]pyridine-2-carboxamide]: the EC50 under setting [1] is under 5 µM. Same read-out and setting: the value for `Cc1ccc2c(N)c(C(=O)Nc3cccc(C(F)(F)F)c3)sc2n1` [Compound 367, 3-amino-6-methyl-N-(3-(trifluoromethyl)phenyl)thieno[2,3-b] pyridine-2-carboxamide] was under 5 µM; that for `COc1ccccc1C(C)N(C)C(=O)c1sc2nc(C)cc(C)c2c1C` (centres unmarked) [Compound 409, N-[1-(2-methoxyphenyl)ethyl]-N,3,4,6-tetramethyl-thieno[2,3-b]pyridine-2-carboxamide] was over 25 µM. The same measure, in the same setting: the same measure for `Nc1c(C(=O)Nc2ccc(C(=O)C(F)(F)F)cc2)sc2nc(-c3ccc(Cl)cc3)ccc12` [Compound 351, 3-amino-6-(4-chlorophenyl)-N-[4-(2,2,2-tri-fluoroacetyl)phenyl]thieno [2,3-b]pyridine-2-carboxamide]: under 5 µM. As for `CN1CCc2nc3sc(C(=O)Nc4cccnc4Cl)c(N)c3cc2C1` [Compound 46, 3-Amino-6-methyl-5,6,7,8-tetrahydro-thieno[2,3-b][1,6]naphthyridine-2-carboxylic acid (2-chloro-pyridin-3-yl)-amide], the 50% effective concentration (EC50) under setting [2] is under 5 µM. Regarding `Nc1c(C(=O)Nc2ccc(Br)cc2)sc2nc(-c3ccc4c(c3)OCO4)ccc12` [Compound 474, 3-amino-6-(1,3-benzodioxol-5-yl)-N-(4-bromophenyl)thieno[2,3-b]pyridine-2-carboxamide], the EC50 under setting [1] was under 5 µM.

Take `Cc1ccc(-c2ccc3c(N)c(C(=O)Nc4cccc(C)c4)sc3n2)cc1` [Compound 644, 3-amino-N-(m-tolyl)-6-(p-tolyl)thieno[2,3-b]pyridine-2-carboxamide]: the EC50 under setting [1] was under 5 µM. As for `COc1ccc(NC(=O)c2sc3nc4c(c(-c5cccs5)c3c2N)CN(C)CC4)cc1` [Compound 28, 3-Amino-6-methyl-4-thiophen-2-yl-5,6,7,8-tetrahydro-thieno[2,3-b][1,6]naphthyridine-2-carboxylic acid (4-methoxy-phenyl)-amide], the EC50 under setting [2] was under 5 µM. For `COc1cccc(-c2ccc3c(N)c(C(=O)Nc4ccc5c(c4)OCO5)sc3n2)c1` [Compound 511, 3-amino-N-(1,3-benzodioxol-5-yl)-6-(3-methoxyphenyl)thieno[2,3-b]pyridine-2-carboxamide], the EC50 under setting [1] was under 5 µM. Take `Cc1cc(C(F)(F)F)c2c(N)c(C(=O)Nc3cccc4ccccc34)sc2n1` [Compound 128, 3-Amino-6-methyl-4-trifluoromethyl-thieno[2,3-b]pyridine-2-carboxylic acid naphthalen-1-ylamide]: the EC50 under setting [2] is over 25 µM. The same measure, in the same setting: the value for `Nc1c(C(=O)Nc2ccc([N+](=O)[O-])cc2)sc2nc3c(c(-c4ccco4)c12)CCC3` [Compound 212, 3-Amino-4-furan-2-yl-6,7-dihydro-5H-cyclopenta[b]thieno[3,2-e]pyridine-2-carboxylic acid (4-nitro-phenyl)-amide] was over 25 µM; that for `C=CCc1c(C)nc2sc(C(=O)Nc3cccc(Cl)c3)c(N)c2c1C` [Compound 96, 5-Allyl-3-amino-4,6-dimethyl-thieno[2,3-b]pyridine-2-carboxylic acid (3-chloro-phenyl)-amide] was 5 to 25 µM; that for `CCc1c2c(nc3sc(C(=O)N4CCOCC4)c(N)c13)CC(C)(C)CC2=O` [Compound 208, 3-Amino-4-ethyl-7,7-dimethyl-2-(morpholine-4-carbonyl)-7,8-dihydro-6H-thieno[2,3-b]quinolin-5-one] was over 25 µM.

Take `Nc1c(C(=O)Nc2cc(C(F)(F)F)ccc2Cl)sc2nc3c(cc12)CCCC3` [Compound 193, 3-Amino-5,6,7,8-tetrahydro-thieno[2,3-b]quinoline-2-carboxylic acid (2-chloro-5-trifluoromethyl-phenyl)-amide]: the EC50 under setting [2] is over 25 µM.

As to `COc1ccc(-c2c(C#N)c(N)nc3sc(C(N)=O)c(N)c23)cc1OC` [Compound 170, 3,6-Diamino-5-cyano-4-(3,4-dimethoxy-phenyl)-thieno[2,3-b]pyridine-2-carboxylic acid amide], the EC50 under setting [3] was over 25 µM. As for `Nc1c(C(=O)Nc2ccccc2C(F)(F)F)sc2ncccc12` [Compound 424, 3-amino-N-[2-(trifluoromethyl)phenyl] thieno[2,3-b]pyridine-2-carboxamide], the EC50 under setting [1] lay within 5 to 25 µM. Consider `CN1CCc2nc3sc(C(=O)Nc4ccc(C(C)(C)C)cc4)c(N)c3cc2C1` [Compound 35, 3-Amino-6-methyl-5,6,7,8-tetrahydro-thieno[2,3-b][1,6]naphthyridine-2-carboxylic acid (4-tert-butyl-phenyl)-amide], for which the EC50 under setting [2] is under 5 µM. As to `Cc1cc(C)c2c(C)c(C(=O)Nc3ccc(NC(=O)C4CC4)cc3)sc2n1` [Compound 393, N-[4-(cyclopropanecarbonylamino)phenyl]-3,4,6-trimethyl-thieno[2,3-b]pyridine-2-carboxamide], the EC50 under setting [1] was 5 to 25 µM. The same measure, in the same setting: the same measure for `COc1cccc(-c2ccc3c(N)c(C(=O)Nc4cc(F)ccc4F)sc3n2)c1` [Compound 516, 3-amino-N-(2,5-difluorophenyl)-6-(3-methoxyphenyl)thieno[2,3-b]pyridine-2-carboxamide]: under 5 µM.

`Cc1ccc(NC(=O)c2sc3nc4c(cc3c2N)CN(C)CC4)c(F)c1` [Compound 104, 3-Amino-6-methyl-5,6,7,8-tetrahydro-thieno[2,3-b][1,6]naphthyridine-2-carboxylic acid (2-fluoro-4-methyl-phenyl)-amide]: under setting [2], the EC50 lay within 5 to 25 µM. `COc1cccc(-c2ccc3c(N)c(C(=O)N(CCC(=O)O)c4ccc(OC(F)(F)F)cc4)sc3n2)c1` [Compound 354, 3-[N-[3-amino-6-(3-methoxy-phenyl)thieno[2,3-b]pyridine-2-carbonyl]-4-(tri-fluoro-methoxy)anili-no]propanoic acid]: the EC50 under setting [1] lay within 5 to 25 µM. `Cc1c(Cl)cccc1NC(=O)c1sc2nc(-c3ccc4c(c3)OCO4)ccc2c1N` [Compound 586, 3-amino-6-(1,3-benzodioxol-5-yl)-N-(3-chloro-2-methyl-phenyl)thieno[2,3-b] pyridine-2-carboxamide]: the 50% effective concentration (EC50) under setting [1] was under 5 µM. Same read-out and setting: the same measure for `COc1cccc(-c2ccc3c(N)c(C(=O)Nc4ccccc4OC)sc3n2)c1` [Compound 504, 3-amino-N-(2-methoxyphenyl)-6-(3-methoxyphenyl)thieno[2,3-b]pyridine-2-carboxamide]: under 5 µM. The same measure, in the same setting: the value for `CCOc1ccccc1NC(=O)c1sc2nc(-c3cccc(OC)c3)ccc2c1N` [Compound 501, 3-amino-N-(2-ethoxyphenyl)-6-(3-methoxyphenyl)thieno[2,3-b]pyridine-2-carboxamide] was under 5 µM. For `CC(C)NC(=O)c1sc2nc3c(cc2c1N)CN(C)CC3` [Compound 270, 3-Amino-6-methyl-5,6,7,8-tetrahydro-thieno[2,3-b][1,6]naphthyridine-2-carboxylic acid isopropylamide], under setting [2], the EC50 is over 25 µM. `Nc1c(C(=O)Nc2cccc(C(F)(F)F)c2)sc2nc3c(cc12)C(=O)CCC3` [Compound 12, 3-Amino-5-oxo-5,6,7,8-tetrahydro-thieno[2,3-b]quinoline-2-carboxylic acid (3-trifluoromethyl-phenyl)-amide]: under setting [3], the EC50 was under 5 µM.
